Here are results for five compounds from patent US11780893B2, “Kv1.3 blockers” (Zealand Pharma A/S, priority 2019, dated 2023).

Data set [1] concerns the target T1, Kv1.2 (Homo sapiens, UniProt P16389).
T1 construct: expressed in transfected cells; host or cells: Chinese Hamster Ovary (CHO)
Put plainly: cell-based.

Data set [2] deals with T2, Kv1.1 (Homo sapiens, UniProt Q09470).
T2 construct: expressed in transfected cells; host or cells: Chinese Hamster Ovary (CHO)
Put plainly: cell-based. The note with it: for Selectivity Kv1.1/Kv1.3: ratio IC50[Kv1.1]/IC50[Kv1.3].

Data set [3] concerns the target T3, Kv1.6 (Homo sapiens, UniProt P17658).
T3 construct: expressed in transfected cells; host or cells: Chinese Hamster Ovary (CHO)
Put plainly: cell-based. The note with it: for Selectivity Kv1.6/Kv1.3: ratio IC50[Kv1.6]/IC50[Kv1.3].

Data set [4] has as its target T4, human Kv1.3 voltage-gated K+ channel (Homo sapiens, UniProt P22001).
T4 construct: host or cells: CHO-DUKX
Put plainly: cell-based.

Data set [5] concerns the target Rat whole blood (Rattus norvegicus, UniProt P15384).
Data set [6] can be described thus: in vivo. The note with it: male, rat, sc, 70 nmol/kg.
The target in data set [7] is T5, Kv1.3 (Homo sapiens, UniProt P22001).
T5 construct: expressed in transfected cells; host or cells: Chinese Hamster Ovary (CHO)
Put plainly: cell-based.

The test system of data set [8] is delayed-type hypersensitivity (DTH) ear swelling response. The data set is classed as in vivo, rat.
The mark [9] stands for this setting: CHO cells, whole-cell patch clamp, read-out: Potency IC50 (nM) Kv1.2.
Setting [10] is: CHO cells, whole-cell patch clamp, read-out: Potency IC50 (nM) Kv1.1.
The mark [11] stands for this setting: CHO cells, whole-cell patch clamp, read-out: Potency IC50 (nM) Kv1.6.
Setting [12] is: inhibition of thallium flux, CHO-DUKX cells with human Kv1.3, read-out: IC50.
[13] abbreviates: CHO cells, whole-cell patch clamp, read-out: Potency IC50 (nM) Kv1.3.

Molecules are shown by their SMILES. Read-outs that look alike come from different tables or passages of the source. Bridge positions count the residues as written; N and C are the ends. Square brackets hold non-standard residues; d marks the D form. Peptide text beside a SMILES is read from it. Nle = CCCC[C@H](N)C(=O)O

T5 sequence (P22001 whole entry): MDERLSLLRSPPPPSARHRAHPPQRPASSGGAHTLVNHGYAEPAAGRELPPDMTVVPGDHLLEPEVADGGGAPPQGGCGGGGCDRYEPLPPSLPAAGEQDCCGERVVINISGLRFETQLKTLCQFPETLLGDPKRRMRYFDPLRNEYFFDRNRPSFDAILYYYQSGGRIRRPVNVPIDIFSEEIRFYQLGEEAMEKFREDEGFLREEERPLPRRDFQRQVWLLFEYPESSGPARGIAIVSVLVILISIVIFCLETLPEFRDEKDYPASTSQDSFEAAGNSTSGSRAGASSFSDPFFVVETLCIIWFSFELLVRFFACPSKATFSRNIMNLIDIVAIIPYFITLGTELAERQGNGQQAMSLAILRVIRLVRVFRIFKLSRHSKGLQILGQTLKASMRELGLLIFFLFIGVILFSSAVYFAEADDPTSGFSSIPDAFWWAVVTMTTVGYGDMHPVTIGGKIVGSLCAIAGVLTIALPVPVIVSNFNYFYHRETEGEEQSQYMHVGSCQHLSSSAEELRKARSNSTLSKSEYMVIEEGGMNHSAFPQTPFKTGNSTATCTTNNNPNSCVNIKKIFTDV
T4 sequence (P22001 whole entry): as above
T2 sequence (Q09470 whole entry): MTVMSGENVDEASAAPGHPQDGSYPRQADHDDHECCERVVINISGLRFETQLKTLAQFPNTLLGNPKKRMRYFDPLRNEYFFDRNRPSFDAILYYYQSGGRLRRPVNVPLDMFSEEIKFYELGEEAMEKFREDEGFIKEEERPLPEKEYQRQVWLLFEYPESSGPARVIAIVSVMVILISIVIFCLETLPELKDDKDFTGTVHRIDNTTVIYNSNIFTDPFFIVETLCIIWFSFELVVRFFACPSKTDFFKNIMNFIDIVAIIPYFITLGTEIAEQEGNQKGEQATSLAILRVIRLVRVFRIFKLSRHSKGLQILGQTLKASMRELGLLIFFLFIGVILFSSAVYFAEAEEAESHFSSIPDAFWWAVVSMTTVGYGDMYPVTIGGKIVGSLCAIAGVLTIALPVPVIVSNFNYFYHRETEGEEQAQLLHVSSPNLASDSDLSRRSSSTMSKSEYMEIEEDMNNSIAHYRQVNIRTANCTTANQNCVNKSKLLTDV
T3 sequence (P17658 whole entry): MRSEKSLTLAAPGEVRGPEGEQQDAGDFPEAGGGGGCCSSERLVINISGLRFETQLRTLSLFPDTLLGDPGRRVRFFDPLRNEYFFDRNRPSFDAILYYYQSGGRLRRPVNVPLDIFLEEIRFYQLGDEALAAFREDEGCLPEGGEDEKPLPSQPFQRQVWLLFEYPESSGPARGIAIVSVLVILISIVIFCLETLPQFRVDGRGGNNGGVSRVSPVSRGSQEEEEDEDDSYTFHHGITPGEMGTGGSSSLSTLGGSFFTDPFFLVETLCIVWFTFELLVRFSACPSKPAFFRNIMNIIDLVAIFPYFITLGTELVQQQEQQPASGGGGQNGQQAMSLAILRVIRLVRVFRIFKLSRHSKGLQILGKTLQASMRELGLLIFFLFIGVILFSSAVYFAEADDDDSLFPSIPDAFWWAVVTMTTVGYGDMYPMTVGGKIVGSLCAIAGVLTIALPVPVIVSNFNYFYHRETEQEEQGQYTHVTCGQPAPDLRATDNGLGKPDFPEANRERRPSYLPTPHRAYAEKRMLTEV
Sequence of Rat whole blood (P15384 whole entry): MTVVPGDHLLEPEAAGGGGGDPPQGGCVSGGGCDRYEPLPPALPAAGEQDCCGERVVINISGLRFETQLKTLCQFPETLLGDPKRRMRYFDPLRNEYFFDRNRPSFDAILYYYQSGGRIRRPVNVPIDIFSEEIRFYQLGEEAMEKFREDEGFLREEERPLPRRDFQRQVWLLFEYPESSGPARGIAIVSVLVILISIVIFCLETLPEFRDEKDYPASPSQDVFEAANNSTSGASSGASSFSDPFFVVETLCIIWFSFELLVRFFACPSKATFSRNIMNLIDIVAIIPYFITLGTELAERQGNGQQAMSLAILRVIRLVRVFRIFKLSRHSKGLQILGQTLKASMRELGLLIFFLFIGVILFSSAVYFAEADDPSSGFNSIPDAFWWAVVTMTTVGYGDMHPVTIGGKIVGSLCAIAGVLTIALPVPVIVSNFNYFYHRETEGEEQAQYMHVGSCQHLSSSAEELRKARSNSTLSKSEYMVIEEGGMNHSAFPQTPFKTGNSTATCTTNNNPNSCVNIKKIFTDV
T1 sequence (P16389 whole entry): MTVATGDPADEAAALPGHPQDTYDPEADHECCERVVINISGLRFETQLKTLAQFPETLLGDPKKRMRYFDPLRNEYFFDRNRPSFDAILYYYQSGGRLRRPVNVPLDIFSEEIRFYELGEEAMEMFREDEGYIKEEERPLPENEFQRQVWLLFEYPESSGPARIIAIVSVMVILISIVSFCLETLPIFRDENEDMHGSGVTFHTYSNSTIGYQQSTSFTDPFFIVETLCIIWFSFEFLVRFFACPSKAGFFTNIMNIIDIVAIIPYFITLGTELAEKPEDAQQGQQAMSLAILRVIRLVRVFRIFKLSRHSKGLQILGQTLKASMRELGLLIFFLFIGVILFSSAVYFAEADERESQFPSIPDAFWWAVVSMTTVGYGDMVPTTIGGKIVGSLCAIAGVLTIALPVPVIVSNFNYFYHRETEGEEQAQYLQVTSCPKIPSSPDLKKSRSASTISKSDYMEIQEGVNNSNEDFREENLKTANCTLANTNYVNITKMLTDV

For orientation: IC50 means the midpoint of a concentration-inhibition curve. Broadly, the AUC(0-inf) is total exposure, with the tail of the curve extrapolated. A low value points to low exposure. One may read the Cmax as the highest concentration seen after dosing. The term half-life denotes how long it takes for the measured level to halve. Read a low half-life as fast loss. For `CC[C@H](C)[C@@H]1NC(=O)[C@H](C)NC(=O)[C@H](CCCCN)NC(=O)[C@H](CC(C)C)NC(=O)[C@@H]2CSSC[C@@H](C(=O)N[C@@H](Cc3ccc(O)cc3)C(=O)N3CCC[C@H]3C(=O)N[C@@H](CCCNC(=N)N)C(N)=O)NC(=O)[C@H](CCCCN)NC(=O)[C@@H]3CSSC[C@H](NC(=O)[C@H](CCC(=O)O)NC(=O)[C@H](C(C)C)NC(=O)[C@H](CO)NC(=O)[C@H](C)NC(=O)[C@H](CO)NC(=O)[C@@H](NC(=O)[C@H](CCCNC(=N)N)NC(=O)[C@H](CCSC)NC(=O)[C@H](CC(=O)O)NC(=O)[C@H](CCSC)NC(=O)[C@@H](N)CC(N)=O)CSSC[C@H](NC(=O)[C@H](CCCCN)NC(=O)CNC(=O)[C@H](Cc4ccccc4)NC(=O)[C@H]([C@@H](C)CC)NC(=O)[C@H](CO)NC(=O)CNC1=O)C(=O)N[C@@H](CCSC)C(=O)N[C@@H](CC(N)=O)C(=O)N[C@@H](CCCCN)C(=O)N[C@@H](CCCCN)C(=O)N3)C(=O)N[C@@H](C)C(=O)N[C@@H](CCC(N)=O)C(=O)N[C@@H](CCCCN)C(=O)N2` [Compound 30] (H-NMDMRCSASVECAQKCLKAIGSIFGKCMNKKCKCYPR-NH2; disulfide 6-27, 12-32, 16-34), the IC50 in data set [1] (setting [9]) is 666 nM; in data set [2] (setting [10]), greater than 3000 nM; in data set [3] (setting [11]) it was greater than 3000 nM; in data set [4] (setting [12]), 0.09 nM; in data set [5] it was no more than 1 nM; in data set [7] (setting [13]) it was 0.14 nM. The “Selectivity Kv1.1/Kv1.3” value in data set [2] is greater than 22000. Also, in data set [3], the “Selectivity Kv1.6/Kv1.3” value is greater than 22000. Besides, the AUC(0-inf) in data set [6] was 0.0467 µM·h. Also, the peak level in data set [6] (Cmax) was 33.3 nM. The same compound had a half-life in data set [6] of 44.4 min.
As to `CCCC[C@H](NC(=O)[C@@H]1CCCN1)C(=O)N[C@@H](CCC(=O)O)C(=O)N[C@@H](CCCC)C(=O)N[C@@H](CCCNC(=N)N)C(=O)N[C@H]1CSSC[C@@H]2NC(=O)[C@H](CCCCN)NC(=O)CNC(=O)[C@H](Cc3ccccc3)NC(=O)[C@H]([C@@H](C)CC)NC(=O)[C@H](CO)NC(=O)CNC(=O)[C@H]([C@@H](C)CC)NC(=O)[C@H](C)NC(=O)[C@H](C)NC(=O)[C@H](CC(C)C)NC(=O)[C@@H]3CSSC[C@@H](C(=O)N[C@@H](Cc4ccc(O)cc4)C(=O)N4CCC[C@H]4C(=O)N[C@@H](CCCNC(=N)N)C(=O)O)NC(=O)[C@H](CCCCN)NC(=O)[C@H](CSSC[C@H](NC(=O)[C@H](CCC(=O)O)NC(=O)[C@H](C(C)C)NC(=O)[C@H](CO)NC(=O)[C@H](C)NC(=O)[C@H](CO)NC1=O)C(=O)N[C@@H](C)C(=O)N[C@@H](CCC(N)=O)C(=O)N[C@@H](CCCCN)C(=O)N3)NC(=O)[C@H](CCCCN)NC(=O)[C@H](CCCCN)NC(=O)[C@H](CC(N)=O)NC(=O)[C@H](CCCC)NC2=O` [Compound 103] (H-P[Nle]E[Nle]RCSASVECAQKCLAAIGSIFGKC[Nle]NKKCKCYPR-OH; disulfide 6-27, 12-32, 16-34), in data set [8] (Exp #7, Kv1.3 blocker 100 nmol/kg SC 24 hrs prior to KLH challenge, CsA 10 mg/kg per os), the “% inhibition of ear thickness (AUC of Δ ear thickness 0-48 hours)” value was found to be 48.9%. Also, the IC50 in data set [1] (setting [9]) is greater than 3000 nM; in data set [2] (setting [10]), greater than 3000 nM; in data set [3] (setting [11]) it was greater than 3000 nM; in data set [4] (setting [12]), 0.38 nM; in data set [7] (setting [13]), 0.55 nM. For the same compound, in data set [2], the “Selectivity Kv1.1/Kv1.3” value was greater than 5500. For the same compound, the “Selectivity Kv1.6/Kv1.3” value in data set [3] is recorded as greater than 5500. In data set [6], this compound gave an AUC(0-inf) of 0.177 µM·h. Besides, in data set [6], the peak level (Cmax) was 68.4 nM. For the same compound, the half-life in data set [6] was 81.6 min.
With `CCCC[C@@H]1NC(=O)[C@@H]2CSSC[C@H](NC(=O)[C@H](CCCNC(=N)N)NC(=O)[C@H](CCCC)NC(=O)[C@H](CCC(=O)O)NC(=O)[C@@H](NC(=O)[C@@H]3CCCN3)[C@@H](C)CC)C(=O)N[C@@H](CO)C(=O)N[C@@H](C)C(=O)N[C@@H](CO)C(=O)N[C@@H](C(C)C)C(=O)N[C@@H](CCC(=O)O)C(=O)N[C@H]3CSSC[C@H](NC(=O)[C@H](CCCCN)NC(=O)[C@H](CCCCN)NC(=O)[C@H](CC(N)=O)NC1=O)C(=O)N[C@@H](CCCCN)C(=O)N[C@H](C(=O)N[C@@H](Cc1ccc(O)cc1)C(=O)N1CCC[C@H]1C(=O)N[C@@H](CCCNC(=N)N)C(=O)O)CSSC[C@H](NC(=O)[C@H](CCCCN)NC(=O)[C@H](CCC(N)=O)NC(=O)[C@H](CCCCN)NC3=O)C(=O)N[C@@H](CC(C)C)C(=O)N[C@@H](C)C(=O)N[C@@H](C)C(=O)N[C@@H]([C@@H](C)CC)C(=O)NCC(=O)N[C@@H](CO)C(=O)N[C@@H]([C@@H](C)CC)C(=O)N[C@@H](Cc1ccccc1)C(=O)NCC(=O)N[C@@H](CCCCN)C(=O)N2` [Compound 101] (H-PIE[Nle]RCSASVECKQKCLAAIGSIFGKC[Nle]NKKCKCYPR-OH; disulfide 6-27, 12-32, 16-34), the “% inhibition of ear thickness (AUC of Δ ear thickness 0-48 hours)” value in data set [8] (rat, in vivo) was found to be 44.5%. The IC50 in data set [1] is 1970 nM; in data set [2], greater than 3000 nM; in data set [3], greater than 3000 nM; in data set [4], 0.18 nM; in data set [5] it was no more than 1 nM; in data set [7] it was 0.35 nM. In addition, in data set [6], the AUC(0-inf) was determined as 0.132 µM·h. The same compound returned a Cmax in data set [6] of 58.6 nM. The half-life in data set [6] is 54.6 min.
`CCCC[C@@H]1NC(=O)[C@@H]2CSSC[C@H](NC(=O)[C@H](CCCNC(=N)N)NC(=O)[C@H](CCCC)NC(=O)[C@H](CC(=O)O)NC(=O)[C@@H](NC(=O)[C@@H](N)CC(N)=O)[C@@H](C)CC)C(=O)N[C@@H](CO)C(=O)N[C@@H](C)C(=O)N[C@@H](CO)C(=O)N[C@@H](C(C)C)C(=O)N[C@@H](CCC(=O)O)C(=O)N[C@H]3CSSC[C@H](NC(=O)[C@H](CCCCN)NC(=O)[C@H](CCCCN)NC(=O)[C@H](CC(N)=O)NC1=O)C(=O)N[C@@H](CCCCN)C(=O)N[C@H](C(=O)N[C@@H](Cc1ccc(O)cc1)C(=O)N1CCC[C@H]1C(=O)N[C@@H](CCCNC(=N)N)C(=O)O)CSSC[C@H](NC(=O)[C@H](CCCCN)NC(=O)[C@H](CCC(N)=O)NC(=O)[C@H](CCCCN)NC3=O)C(=O)N[C@@H](CC(C)C)C(=O)N[C@@H](CCCCN)C(=O)N[C@@H](C)C(=O)N[C@@H]([C@@H](C)CC)C(=O)NCC(=O)N[C@@H](CO)C(=O)N[C@@H]([C@@H](C)CC)C(=O)N[C@@H](Cc1ccccc1)C(=O)NCC(=O)N[C@@H](CCCCN)C(=O)N2` [Compound 95] (H-NID[Nle]RCSASVECKQKCLKAIGSIFGKC[Nle]NKKCKCYPR-OH; disulfide 6-27, 12-32, 16-34): the “% inhibition of ear thickness (AUC of Δ ear thickness 0-48 hours)” value in data set [8] (Exp #5, Kv1.3 blocker 100 nmol/kg SC 24 hrs prior to KLH challenge, CsA 10 mg/kg per os) was determined as 39.6%. Moreover, the IC50 is 2060 nM in data set [1] (setting [9]); greater than 3000 nM in data set [2] (setting [10]); greater than 3000 nM in data set [3] (setting [11]); 0.16 nM in data set [4] (setting [12]); 0.27 nM in data set [7] (setting [13]). Moreover, the “Selectivity Kv1.1/Kv1.3” value in data set [2] was greater than 11300. Further, in data set [3], the “Selectivity Kv1.6/Kv1.3” value is greater than 11300. This compound registered an AUC(0-inf) in data set [6] of 0.085 µM·h. In data set [6], this compound displayed a Cmax of 46.5 nM. In data set [6], this compound had a half-life of 65.4 min.
Take `CC[C@H](C)[C@@H]1NC(=O)[C@H](C)NC(=O)[C@H](C)NC(=O)[C@H](CC(C)C)NC(=O)[C@@H]2CSSC[C@@H](C(=O)N[C@@H](Cc3ccc(O)cc3)C(=O)N3CCC[C@H]3C(=O)N[C@@H](CCCNC(=N)N)C(N)=O)NC(=O)[C@H](CCCCN)NC(=O)[C@@H]3CSSC[C@H](NC(=O)[C@H](CCC(=O)O)NC(=O)[C@H](C(C)C)NC(=O)[C@H](CO)NC(=O)[C@H](C)NC(=O)[C@H](CO)NC(=O)[C@@H](NC(=O)[C@H](CCCNC(=N)N)NC(=O)[C@H](CCSC)NC(=O)[C@H](CC(=O)O)NC(=O)[C@H](CCSC)NC(=O)[C@@H](N)CC(N)=O)CSSC[C@H](NC(=O)[C@H](CCCCN)NC(=O)CNC(=O)[C@H](Cc4ccccc4)NC(=O)[C@H]([C@@H](C)CC)NC(=O)[C@H](CO)NC(=O)CNC1=O)C(=O)N[C@@H](CCSC)C(=O)N[C@@H](CC(N)=O)C(=O)N[C@@H](CCCCN)C(=O)N[C@@H](CCCCN)C(=O)N3)C(=O)N[C@@H](CCCCN)C(=O)N[C@@H](CCC(N)=O)C(=O)N[C@@H](CCCCN)C(=O)N2` [Compound 52] (H-NMDMRCSASVECKQKCLAAIGSIFGKCMNKKCKCYPR-NH2; disulfide 6-27, 12-32, 16-34): in data set [8] (Exp #4, Kv1.3 blocker 100 nmol/kg SC 24 hrs prior to KLH challenge, CsA 10 mg/kg per os, +/- SD), the “% inhibition of ear thickness (AUC of Δ ear thickness 0-48 hours)” value is 25.1%. Also, the concentration for half-maximal inhibition (IC50) is 88 nM in data set [1] (setting [9]); greater than 3000 nM in data set [2] (setting [10]); greater than 3000 nM in data set [3] (setting [11]); 0.11 nM in data set [4] (setting [12]); no more than 1 nM in data set [5]; 0.11 nM in data set [7] (setting [13]). For the same compound, the “Selectivity Kv1.1/Kv1.3” value in data set [2] is listed as greater than 27500. In data set [3], the “Selectivity Kv1.6/Kv1.3” value was greater than 27500. For the same compound, the AUC(0-inf) in data set [6] was 0.0485 µM·h. Besides, in data set [6], the Cmax came out at 31.2 nM. Further, in data set [6], the half-life was 53.4 min.
